Here are results for two compounds from US20070082949A1, “Agent for preventing and treating language disorders” (priority 2003, published 2007).

One data set concerns language disorder. The data set is described as follows: Effect of EPA-E on a language-disordered patient with a history of cerebral infarction. It is filed as in vivo, human. Here is the method: A person with the history of cerebral infarction was treated. The patient experienced cerebral infarction in November, 2001, and started rehabilitation therapy of left hemiplegia from April, 2002. In June, 2002, the patient was hospitalized for 1 month because of recurrence of the cerebral infarction, and again started the rehabilitation therapy from August, 2002. The drugs that the patient had been taking before the EPA-E include: Gramalil (trade name; manufactured by Fujisawa Pharmaceutical Co., Ltd.; generic name, tiapride hydrochloride), Ketas (trade name; manufactured by Kyorin Pharmaceutical Co., Ltd.; generic name, ibudilast), Panaldine (trade name; manufactured by Daiichi Pharmaceutical Co., Ltd.; generic name, ticlopidine hydrochloride), Nivadil (trade name; manufactured by Fujisawa Pharmaceutical Co., Ltd.; generic name, nilvadipine), Altat (trade name; manufactured by Teikoku Hormone Mfg. Co., Ltd.; generic name, roxatidine acetate hydrochloride).
Before taking EPA-E, the patient could barely bring out a word. From September, 2002, the patient was administered with Epadel S600 (trade name; manufactured by Mochida Pharmaceutical Co., Ltd.; generic name, ethyl icosapentate) at a dose 600 mg and 3 times a day (namely, at a daily dose of 1800 mg).

Data set [1] concerns cell derived from mouse connective tissue. Particulars: cited from earlier work.
The next data set relates to rat. Particulars: delayed discrimination test in rat; cited from earlier work.

SMILES strings stand for the structures.

For `CC/C=C\C/C=C\C/C=C\C/C=C\C/C=C\CCCC(=O)O` [EPA, all-cis-5,8,11,14,17-icosapentaenoic acid], in the data set with language disorder (human, in vivo), the “side effects (overall conclusion)” value is “no side effects”. Moreover, the “therapeutic effect for language disorder (overall conclusion)” value in the data set on language disorder (summary of Example 1) was “significant therapeutic effects for language disorder”. The NGF production entry in data set [1] is listed as “action of enhancing NGF production”. The correct reaction rate entry in the data set on rat is on record as “increase of correct reaction rate”.
On to `CC/C=C\C/C=C\C/C=C\C/C=C\C/C=C\CCCC(=O)OCC` [EPA-E, ethyl icosapentate], for which the “speech / conversation of the patient” value with language disorder (1800 mg/day from September 2002, December 2002) was “able to carry on a complicated conversation comprising not only a single word but a plurality of words”; in the data set on language disorder (1800 mg/day from September 2002, November 2002) it was “responding “not hurting anywhere” when fallen from the bed, and waking up at night and responding “I am not sleepy””; in the data set on language disorder (person, Epadel S600 600 mg 3 times a day (1800 mg/day) from September 2002, late October 2002), “started to respond by saying “Good morning”, and also started brief conversation with the care giver during the meal”. Besides, the “frequency of conversation, vocabulary, communication ability” value in the data set with language disorder (1800 mg/day from September 2002, February 2003) is recorded as “further improvement was noted in the frequency of conversation, vocabulary, communication ability”. In addition, in the data set on language disorder (1800 mg/day from September 2002, January 2003), the “frequency of conversation and vocabulary” value is on record as “the frequency of the conversation as well as vocabulary increased even further”. For the same compound, the adverse events entry in the data set with language disorder (1800 mg/day, 6 months from the start of the administration) is reported as “no adverse event suggested to be caused by EPA-E was found”.
